# Where a SMILES comes first, the peptide text is derived from it.
row,SMILES,logP
1,Nc1nc(N)nc(-c2ccc(SC(F)(F)F)cc2)n1,3.2
2,CCOC(=O)C(Cc1ccccc1)(Cc1ccccc1)S(=O)(=O)c1ccc([N+](=O)[O-])cc1,3.4
3,COC(=O)C(C)NP(=O)(OCC1C=CC(n2cc(C)c(=O)[nH]c2=O)O1)Oc1ccccc1Cl (stereo not drawn),1.37
4,CCO[PH](=O)O,-2.7
5,O=C1N=C(N2CCOCC2)CN1Cc1c(Cl)cccc1Cl,1.3
6,CCCc1nc(NCN2CCCC2=O)nc(N2CCOCC2)n1,1.62
7,C=CCc1c(OC)cc(Cc2cnc(N)nc2N)cc1OCC,2.66
8,CC(=O)Oc1cc(OC(C)CCCc2ccccc2)cc2c1C1CC(O)CCC1C(C)N2 (stereo not drawn),5.7
9,O=c1cc(-c2cccc(Cl)c2)oc2ccc(Cl)cc12,4.38
10,COc1ccc(CCNCC(O)COc2ccc(-c3nc(C)c(Cl)[nH]3)cc2)cc1OC (stereo not drawn),3.9
11,Cc1ccc(Cl)c(Cc2ccc(Cl)cc2Cl)c1,6.38
12,OCCN1CCN(CCn2nnc3ccccc32)CC1,-0.05
13,CCOP(=O)(NC(C)CC)Oc1cc(C)ccc1[N+](=O)[O-] (stereo not drawn),2.73
14,COc1ccc(CCN(C)CCCC(C#N)(c2cc(OC)c(OC)c(OC)c2)C(C)C)cc1OC (stereo not drawn),3.71
15,CC(=O)OCC1OC(n2cc(F)c(=O)[nH]c2=O)C(OC(C)=O)C1OC(C)=O (stereo not drawn),-0.25
16,Nc1nnnn1-c1ccccc1,0.69
17,COc1ccc2cc(C(C)C(=O)OCCCCOC(C)=O)ccc2c1 (stereo not drawn),3.3
18,CC(C)Nc1nc(=O)n(C(C)C)c(=O)n1C,0.53
19,NC(Cc1c[nH]c2ccccc12)C(=O)N1CCCC1C(=O)O (stereo not drawn),-0.98
20,Clc1ccc(CNc2ncnc3nc[nH]c23)cc1,2.9
21,O=[N+]([O-])c1cc(F)ccc1O,1.88
22,CNC(=O)Cn1cccc(O)c1=O,-1.15
23,COc1c([N+](=O)[O-])cc(C(=O)O)cc1[N+](=O)[O-],1.73
24,C=C1CC2c3c(O)cc(CCCCC)cc3OC(C)(C)C2CC1O (stereo not drawn),5.24
25,NC(=O)c1[nH]cc(-c2ccc(Cl)cc2)c1N1CCOCC1,2.4

row,SMILES,logP
1,CC(C)=CCCC(C)=CCCC(C)(C)O,4.54
2,CCCc1nc(N)nc(N2CCCCC2)n1,2.55
3,O=C1NC(Cc2c[nH]c3ccccc23)C(=O)NC1Cc1c[nH]c2ccccc12 (stereo not drawn),2.04
4,CC(=O)N(O)CCCCCNC(=O)CCC(=O)N(O)CCCCCNC(=O)CCC(=O)N(O)CCCCCNS(C)(=O)=O,-0.36
5,CC1=CC(=C2C(=O)c3ccccc3C2=O)C=C(C)N1CCCNC(=O)N(CCCl)N=O,2.84
6,Cc1cn(C2C=CC(COP3(=O)OCc4ccccc4O3)O2)c(=O)[nH]c1=O (stereo not drawn),0.28
7,Clc1cc(Cl)c(-c2c(Cl)ccc(Cl)c2Cl)c(Cl)c1,6.75
8,Cn1ccnc1CC1COc2ccccc2O1 (stereo not drawn),1.93
9,CCCCCCCCCCCCCCc1ccccc1,9.95
10,CCOP(=O)(OCC)C(Cl)(Cl)P(=O)(OCC)OCC,1.31
11,O=c1ccc(/C=C/c2ccc(-n3cnc4c3CCCC4)cc2)n[nH]1,2.47
12,Cc1cc(CCCCCCCOc2ccc(C3=NCCO3)cc2)on1,4.79
13,CN(C)CC(c1ccccc1)c1ccccc1,3.58
14,Clc1ccc(C2(Cn3cncn3)OCC3(CCC4OC4C3)CO2)c(Cl)c1 (stereo not drawn),1.87
15,Cc1ncc([N+](=O)[O-])n1CCN=[N+]=[N-],0.76
16,CCNC(=O)NS(=O)(=O)c1cnccc1Nc1ccccc1C,3.06
17,COC(=O)c1ccc2ccc3cccc4ccc1c2c34,4.73
18,CCC(C)C(NC(=O)C(Cc1ccccc1)NC(=O)C(CCSC)NC(=O)C(N)C(C)C)C(=O)O (stereo not drawn) (H-VMFI-OH; configuration not given here),-0.63
19,Cc1cccc(C)c1CCN,2.38
20,CNC(=S)NN=C(C)CSCC(C)=NNC(=S)NC,1.38
21,Cc1cc2ncccc2c2nc(N)n(C)c12,1.98
22,CCC(C)C(NC(=O)C(N)CC(C)C)C(=O)NC(C(=O)NCC(=O)NC(C)C(=O)O)C(C)CC (stereo not drawn) (H-LIIGA-OH; configuration not given here),-1.65
23,CC(NC(=O)C(N)Cc1c[nH]c2ccccc12)C(=O)O (stereo not drawn),-1.98
24,CCOc1cccc2nc(N)nc(N)c12,1.69
25,C[C@@H]1CN(c2c(F)c(N)c3c(=O)c(C(=O)O)cn(C4CC4)c3c2F)C[C@H](C)N1,-0.02

row,SMILES,logP
1,CCCCCCCNc1ncnc2nc[nH]c12,3.71
2,C[C@@H]1C[C@H]2[C@@H]3CCC4=CC(=O)C=C[C@]4(C)[C@@]3(Cl)[C@@H](O)C[C@]2(C)[C@@]1(OC(=O)c1ccco1)C(=O)CCl,3.9
3,OC(CNCC1COc2ccccc2O1)CON=C(C1CC1)C1CC1 (stereo not drawn),2.22
4,Cc1ccnc2c1NC(=O)c1cccnc1N2C1CC1,1.81
5,CCCCOC1C(=O)NC(=O)NC1=[N+]=[N-] (stereo not drawn),-0.55
6,O=C(OC1Cc2c(O)cc(O)cc2OC1c1ccc(O)c(O)c1)c1ccccc1 (stereo not drawn),3.44
7,CCN(C(C)=O)c1cccc(-c2ccnc3c(C#N)cnn23)c1,1.23
8,O=c1cc(-c2c(Cl)cccc2Cl)oc2ccccc12,3.79
9,CCCC1C(=O)N(CCN(C)C)c2cccc(C(F)(F)F)c2CC1c1ccc(OC)cc1 (stereo not drawn),6.9
10,O=C1N=C(N2CCOCC2)CN1Cc1cccc(Cl)c1,1.3
11,COCc1c(O)c(=O)cc(C)n1C,-0.42
12,OCCNc1ncnc2nc[nH]c12,-0.18
13,CC(CO)N(C)C (stereo not drawn),0.16
14,CC(C)C[C@H](NC(=O)[C@@H](NC(=O)[C@@H](N)CC(C)C)C(C)C)C(=O)O (H-Leu-Val-Leu-OH),-1.57
15,NS(=O)(=O)c1ccc(Cn2cnc3ccccc32)cc1,1.04
16,COC(=O)C=CCn1cnc([N+](=O)[O-])n1,0.09
17,COC(=O)C(C)NP(=O)(OCC1C=CC(n2cc(C)c(=O)[nH]c2=O)O1)Oc1cccc(C(F)(F)F)c1 (stereo not drawn),1.57
18,CCOC(=O)C1=C(C)NC(C)=C(C(=O)OC(C)C)C1c1cccc2c1OCO2 (stereo not drawn),4.71
19,Clc1c(Br)cccc1N=C1NCCN1,1.82
20,CNC(=O)c1cn2c(C)c(C)nc2c2c1CCC(c1ccccc1)O2 (stereo not drawn),3.6
21,COC(=O)Nc1c(C(C)C)cccc1C(C)C,2.2
22,COc1ccc(C2=NC(C)(C(=O)O)CS2)c(O)c1 (stereo not drawn),1.7
23,CC(=O)OC(C)(C)C1CCC2(C)CCCC(CO)C2C1 (stereo not drawn),3.49
24,NC1=NCC(CN2CCC(Cc3ccccc3)CC2)O1 (stereo not drawn),2.38
25,COc1ccc(C2Cc3ccccc3N(CCN(C)C)C(=O)C2C)cc1 (stereo not drawn),4.5

row,SMILES,logP
1,COc1ccc(CCNCC(O)COc2ccc(-c3nc(C(C)C)c[nH]3)cc2)cc1OC (stereo not drawn),3.9
2,CC(C)CC(N)C(=O)NC(CO)C(=O)NC(CC(C)C)C(=O)O (stereo not drawn) (H-Leu-Ser-Leu-OH; configuration not given here),-2.35
3,COc1ccc(C2=NC(C(=O)O)CS2)c(O)c1 (stereo not drawn),1.5
4,COc1cc(-n2c(C(F)(F)F)nn(C)c2=S)cc(OC)c1OC,2.04
5,CC(=O)c1ccc(Br)cc1O,3.15
6,CCCN(CCC)C1CCc2c(OC)cccc2C1C (stereo not drawn),4.76
7,C[N+](C)([O-])Cc1ccccc1,-0.57
8,NC(Cc1ccccc1)C(=O)NC(Cc1ccc(O)cc1)C(=O)O (stereo not drawn) (H-Phe-Tyr-OH; configuration not given here),-1.68
9,Cc1sc2c(C)cc3c(C)cc(=O)oc3c2c1C,4.09
10,CCCCCCCCNC(=O)N1C(=O)N(C)CC1O (stereo not drawn),3.46
11,O=C(Cc1c(Cl)cc(Cl)cc1Cl)Oc1coc(CO)cc1=O,1.92
12,CON=C(C(=O)NC1C(=O)N2C(C(=O)OCc3oc(=O)oc3C)=CCSC12)c1csc(N)n1 (stereo not drawn),0.17
13,O=c1cc(CSCCO)occ1O,-0.69
14,O=C(O)c1cccc(F)c1F,1.88
15,COCC(O)Cn1c([N+](=O)[O-])nc(Br)c1Br (stereo not drawn),1.02
16,CCC(C)C(N)C(=O)NC(C)C(=O)NCC(=O)NC(Cc1ccccc1)C(=O)O (stereo not drawn) (H-IAGF-OH; configuration not given here),-1.78
17,CC(C)C(N)C(=O)N1CCCC1C(=O)NCC(=O)NC(C(=O)O)C(C)C (stereo not drawn) (H-VPGV-OH; configuration not given here),-2.83
18,Cc1c2ccoc2cc2oc(=O)ccc12,2.33
19,CCOc1ccc(NC(=O)OCCN2CCCCC2)cc1,3.41
20,CC(C)NC(=NC#N)NS(=O)(=O)c1cnccc1NC1CC1,0.01
21,COC(=O)Nc1c(C)cccc1C,1.69
22,CC(C)N(CCC(C(N)=O)c1ccccc1Cl)C(C)C (stereo not drawn),2.83
23,CC(=O)c1c2ccccc2cc2ccccc12,3.6
24,O=C(O)CCCCON=C(c1cccc(C(F)(F)F)c1)c1ccncn1,3.14
25,Nc1n[n+]([O-])c2ccccc2[n+]1[O-],-0.3

row,SMILES,logP
1,c1ccc(CCN2CCN(CCn3nc4ccccc4n3)CC2)cc1,3.72
2,O=c1[nH]c2cc(Cl)ccc2c(O)c1-c1cccc(Oc2ccccc2)c1,5.1
3,CCN(CC)C(=O)COC(=O)c1cc(S(N)(=O)=O)c(Cl)cc1NCc1ccco1,2.45
4,CNC(=S)OCCn1c([N+](=O)[O-])cnc1C,1.12
5,O=C1c2ccc(C(F)(F)F)cc2OCN1CCO[N+](=O)[O-],3.01
6,C#CCNc1nc(CCC)nc(N2CCOCC2)n1,2.3
7,CCOC(=O)c1cccc(N(C)C)c1,3.19
8,Cc1ccc([N+](=O)[O-])c(C(=O)O)c1,1.63
9,Cc1cc2c(ccc3cc(C)c(=O)oc32)o1,2.97
10,Nc1nnnn1-c1ccc2ccccc2c1,2.08
11,COc1ccc(N2CC(N3CCCCC3)=NC2=O)cc1,1.5
12,OCCN1CCN(CCn2nc3ccccc3n2)CC1,0.43
13,CCC(C)C(N)C(=O)NC(CO)C(=O)NC(C(=O)O)C(C)CC (stereo not drawn) (H-Ile-Ser-Ile-OH; configuration not given here),-2.64
14,CNc1ccc(S(=O)(=O)N(C)C)cc1,1.43
15,NC(Cc1cc(I)c(OCCc2ccc(O)cc2)c(I)c1)C(=O)O (stereo not drawn),2
16,COc1cc2ncnc(Nc3cccc(Br)c3)c2cc1OC,3.49
17,O=C1CN=C(c2ccccc2)c2ccc(C(F)(F)F)cc2N1,3.18
18,Cc1ccc(C(=O)O)cc1[N+](=O)[O-],2.35
19,CCCN(CCCC(NC(C)=O)C(=O)NCc1ccccc1)C(=O)N(CCCl)N=O (stereo not drawn),1.57
20,CCOC(=O)N1COCc2c1ccc1cc3ccc4c(c3nc21)COCN4C(=O)OCC,2.5
21,O=C(Cc1ccccc1)c1c(O)c2ccc(Cl)cc2[nH]c1=O,3.66
22,Cc1c(O)c(=O)ccn1CCCOC(=O)c1ccc(N(C)C)cc1,1.66
23,CCCC(=O)c1ccncc1,1.4
